Marks after values point to notes of the source that are not given here.
What was measured:
[1] = target: T1, EGFR (Homo sapiens, UniProt P00533); experiment: Luciferase-coupled chemiluminescence kinase assay; type: biochemical; settings: ATP at Km
T1 construct: residues H672-A1210 of human EGFR, Proqinase; purchased Proqinase
Experimental: Dose-response experiments were done using 10 different inhibitor concentrations in 384-well microtiter plates. The ATP concentration used for each assay was equivalent to the Km for each kinase.
(§1) A Luciferase-coupled chemiluminescence assay was used to measure EGFR and KDR (VEGFR2) activity. Kinase activity was measured as the percentage of ATP consumed following the kinase reaction using luciferase-luciferin-coupled chemiluminescence. Reactions were conducted in 384-well white, medium-binding microtiter plates (Greiner). […] The reaction mixture was incubated at room temperature for 4 h. Following the kinase reaction, a 20 μL aliquot of Kinase Glo (Promega) was added and luminescence signal was measured using a Victor2 plate reader (Perkin-Elmer). Total ATP consumption was limited to 50%.

[2] = target: T2, Src (Homo sapiens, UniProt P12931); experiment: Chemiluminescent kinase assay; type: biochemical; settings: ATP at Km
T2 construct: His (N); purchased Upstate Biotech

[3] = target: T1, EGFR; experiment: Mechanism of action study / Ki determination; type: biochemical
Experimental: Enzymatic activity was measured by standard methods after dilution of the enzyme-inhibitor complex.

[4] = test system: Dopamine, Non-selective; experiment: NovaScreen assay; type: binding
[5] = target: T3, Muscarinic, M1 (Human Recombinant) (Homo sapiens, UniProt P11229); experiment: NovaScreen assay; type: binding
T3 construct: NovaScreen
T3 sequence (P11229 whole entry): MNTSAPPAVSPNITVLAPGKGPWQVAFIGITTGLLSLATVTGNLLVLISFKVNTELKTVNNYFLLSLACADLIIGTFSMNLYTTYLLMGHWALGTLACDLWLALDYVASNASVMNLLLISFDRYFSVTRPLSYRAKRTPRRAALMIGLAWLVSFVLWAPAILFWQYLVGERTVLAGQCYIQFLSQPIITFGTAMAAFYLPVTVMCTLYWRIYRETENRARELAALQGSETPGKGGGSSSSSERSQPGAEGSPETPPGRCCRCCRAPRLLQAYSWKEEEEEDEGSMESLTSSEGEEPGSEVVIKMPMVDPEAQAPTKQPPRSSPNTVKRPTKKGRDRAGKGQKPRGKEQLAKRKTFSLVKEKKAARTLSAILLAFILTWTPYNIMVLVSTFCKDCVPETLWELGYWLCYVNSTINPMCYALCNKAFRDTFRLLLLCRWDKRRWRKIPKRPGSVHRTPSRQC

[6] = target: T4, Testosterone (cytosolic) (Homo sapiens, UniProt P10275); experiment: NovaScreen assay; type: binding; settings: read-out: Inhibition, 10 μM XL-647
T4 construct: NovaScreen
T4 sequence (P10275 whole entry): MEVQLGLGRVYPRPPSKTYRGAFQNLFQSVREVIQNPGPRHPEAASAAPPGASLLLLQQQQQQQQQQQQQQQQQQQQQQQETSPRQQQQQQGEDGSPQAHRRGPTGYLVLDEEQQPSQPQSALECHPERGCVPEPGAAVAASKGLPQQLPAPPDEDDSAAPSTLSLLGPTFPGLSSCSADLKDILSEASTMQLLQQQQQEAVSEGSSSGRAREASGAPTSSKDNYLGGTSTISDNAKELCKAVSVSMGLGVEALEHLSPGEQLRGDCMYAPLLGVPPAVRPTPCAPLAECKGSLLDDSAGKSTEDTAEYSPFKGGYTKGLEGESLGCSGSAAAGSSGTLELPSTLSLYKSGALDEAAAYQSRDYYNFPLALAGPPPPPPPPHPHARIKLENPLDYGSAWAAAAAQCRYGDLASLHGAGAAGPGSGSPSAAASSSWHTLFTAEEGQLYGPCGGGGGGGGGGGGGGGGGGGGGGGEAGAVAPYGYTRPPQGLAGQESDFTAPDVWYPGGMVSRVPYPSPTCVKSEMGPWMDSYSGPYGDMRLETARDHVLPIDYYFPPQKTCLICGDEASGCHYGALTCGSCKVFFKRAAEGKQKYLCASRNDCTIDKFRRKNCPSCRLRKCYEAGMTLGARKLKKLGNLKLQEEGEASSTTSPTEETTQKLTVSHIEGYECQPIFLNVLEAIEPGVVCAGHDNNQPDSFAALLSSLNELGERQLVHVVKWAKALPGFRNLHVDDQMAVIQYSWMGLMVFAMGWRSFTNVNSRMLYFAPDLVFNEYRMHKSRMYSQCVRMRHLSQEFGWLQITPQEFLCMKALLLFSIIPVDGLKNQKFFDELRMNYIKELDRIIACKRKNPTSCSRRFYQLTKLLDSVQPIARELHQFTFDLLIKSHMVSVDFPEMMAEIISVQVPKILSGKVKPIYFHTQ

[7] = target: T5, Leukotriene B4, LTB4 (Homo sapiens, UniProt Q15722); experiment: NovaScreen assay; type: binding; settings: read-out: Inhibition, 10 μM XL-647
T5 construct: NovaScreen
T5 sequence (Q15722 whole entry): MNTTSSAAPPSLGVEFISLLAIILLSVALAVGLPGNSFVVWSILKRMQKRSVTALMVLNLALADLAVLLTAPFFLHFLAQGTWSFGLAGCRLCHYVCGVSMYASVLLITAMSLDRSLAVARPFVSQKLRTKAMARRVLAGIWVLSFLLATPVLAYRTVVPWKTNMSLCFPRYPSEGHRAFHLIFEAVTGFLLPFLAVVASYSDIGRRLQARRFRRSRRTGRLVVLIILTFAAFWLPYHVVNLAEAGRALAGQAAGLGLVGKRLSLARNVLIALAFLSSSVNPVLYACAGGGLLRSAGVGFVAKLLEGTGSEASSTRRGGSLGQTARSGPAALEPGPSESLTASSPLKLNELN

[8] = target: T6, Leukotriene D4, LTD4 (Homo sapiens, UniProt Q9Y271); experiment: NovaScreen assay; type: binding; settings: read-out: Inhibition, 10 μM XL-647
T6 construct: NovaScreen
T6 sequence (Q9Y271 whole entry): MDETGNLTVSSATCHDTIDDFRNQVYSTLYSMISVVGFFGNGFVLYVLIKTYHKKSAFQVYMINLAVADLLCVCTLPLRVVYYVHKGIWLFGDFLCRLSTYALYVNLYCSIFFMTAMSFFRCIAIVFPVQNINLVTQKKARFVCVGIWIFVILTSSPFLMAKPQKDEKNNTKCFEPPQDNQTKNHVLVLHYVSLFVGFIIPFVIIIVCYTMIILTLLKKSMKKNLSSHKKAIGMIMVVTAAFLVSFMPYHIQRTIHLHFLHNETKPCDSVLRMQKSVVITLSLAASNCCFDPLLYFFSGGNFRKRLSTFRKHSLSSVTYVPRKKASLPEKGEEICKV

[9] = target: T7, Platelet Activating Factor, PAF (Homo sapiens, UniProt P25105); experiment: NovaScreen assay; type: binding; settings: read-out: Inhibition, 10 μM XL-647
T7 construct: NovaScreen
T7 sequence (P25105 whole entry): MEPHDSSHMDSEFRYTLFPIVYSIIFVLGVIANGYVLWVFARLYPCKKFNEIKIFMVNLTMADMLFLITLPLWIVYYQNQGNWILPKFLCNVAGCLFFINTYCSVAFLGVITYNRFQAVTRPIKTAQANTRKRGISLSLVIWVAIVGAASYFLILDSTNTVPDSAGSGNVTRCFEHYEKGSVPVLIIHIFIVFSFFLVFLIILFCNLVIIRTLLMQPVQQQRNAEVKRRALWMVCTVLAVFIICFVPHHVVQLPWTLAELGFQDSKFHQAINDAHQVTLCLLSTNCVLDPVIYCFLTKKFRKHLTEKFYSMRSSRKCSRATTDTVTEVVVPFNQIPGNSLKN

[10] = target: T8, Neurokinin, NK1 (Homo sapiens, UniProt P25103); experiment: NovaScreen assay; type: binding; settings: read-out: Inhibition, 10 μM XL-647
T8 construct: NovaScreen
T8 sequence (P25103 whole entry): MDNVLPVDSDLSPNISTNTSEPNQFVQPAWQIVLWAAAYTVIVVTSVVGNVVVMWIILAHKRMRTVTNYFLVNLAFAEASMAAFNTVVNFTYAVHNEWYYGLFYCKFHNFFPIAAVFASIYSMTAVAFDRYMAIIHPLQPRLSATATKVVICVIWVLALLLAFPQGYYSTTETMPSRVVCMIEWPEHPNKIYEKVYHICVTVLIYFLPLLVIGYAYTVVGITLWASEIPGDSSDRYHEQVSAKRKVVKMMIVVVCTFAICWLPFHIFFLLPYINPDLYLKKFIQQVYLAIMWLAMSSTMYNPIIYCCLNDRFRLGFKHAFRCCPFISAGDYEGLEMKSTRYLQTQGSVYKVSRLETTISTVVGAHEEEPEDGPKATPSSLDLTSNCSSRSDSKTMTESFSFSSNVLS

[11] = target: T9, EphA2 (Homo sapiens, UniProt P29317); experiment: Chemiluminescent kinase assay; type: biochemical
T9 construct: Human, N598-; mM MgCl2, 3 mM MnCl2,; R890, N-His6; His6 (N)
T9 sequence (P29317 598-890): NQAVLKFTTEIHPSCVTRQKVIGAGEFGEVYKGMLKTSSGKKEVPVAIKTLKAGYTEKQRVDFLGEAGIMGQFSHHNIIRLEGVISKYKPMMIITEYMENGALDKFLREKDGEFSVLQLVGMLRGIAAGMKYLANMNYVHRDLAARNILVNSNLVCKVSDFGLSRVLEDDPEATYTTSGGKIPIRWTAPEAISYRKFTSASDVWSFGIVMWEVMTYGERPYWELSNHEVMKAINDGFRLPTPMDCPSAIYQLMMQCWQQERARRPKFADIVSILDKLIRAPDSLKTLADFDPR
Experimental: as §1

[12] = target: ErbB2 (Homo sapiens, UniProt P04626); experiment: ErbB2 autophosphorylation ELISA, BT474 cells; type: cell-based; settings: read-out: Cellular IC50, autophosphorylation
Experimental: The ErbB2 autophosphorylation ELISA utilized BT474 (ATCC) cells. Cells were seeded at 3×10^4 cells/well into 96-well microtiter plates (Costar 3904), in 1:1(DMEM:F12K) (Cellgro) containing 10% FBS (Heat-Inactivated, Hyclone), 1% penicillin-streptomycin (Cellgro), 1% NEAA solution (Cellgro), and 2% L-Glutamine (Cellgro). The cells were then incubated at 37° C., 5% CO2 for 40 hr. […] Following treatment, media was removed, the cell monolayer was washed with cold PBS and immediately lysed with cold lysis buffer. Lysates were centrifuged and transferred into blocked (1% BSA) 96-well high-binding plates (Costar 3925) coated with rabbit polyclonal anti-ErbB2 (1.3 μg/ml, Cell Signaling Technology). Plates were then incubated with HRP-conjugated, anti-phosphotyrosine cocktail (1:10,000, Zymed Laboratories, Inc), followed by the addition of a luminol-based substrate solution. Plates were read with a Victor spectrophotometer (Wallac). IC50 values were determined based on total ErbB2 tyrosine phosphorylation with compound treatment versus total ErbB2 tyrosine phosphorylation with no compound treatment.

[13] = target: PDGFRβ (Homo sapiens, UniProt P09619); experiment: Cellular autophosphorylation assay; type: cell-based
[14] = target: T10, Phospho-EGFR Tyr1068 (Homo sapiens, UniProt P00533, L858R/T790M); experiment: Immunohistochemical analysis of phosphorylation in H1975 xenografts; type: in vivo, mouse; settings: 14-day dosing
T10 construct: host or cells: H1975 (cultured cells; s.c. xenografts in mice)
Experimental: For immunohistochemical analysis of H1975, MDA-MB-231 and other xenografts, tumors were excised after euthanasia and fixed in zinc fixative (BD Biosciences) for 48 h before being processed into paraffin blocks. Serial sections at 5 μm were obtained from the area of largest possible surface for each tumor and stained using standard methods. The following antibodies were used: Ki67 (SP6; Labvision), CD31 (MECA.32; BD Biosciences), pERK^Thr202/Tyr204 (phospho-p44/42 mitogen-activated protein kinase; Cell Signaling Technology), pAKT^Ser473 (Cell Signaling Technology), and pEGFR^Tyr1068 (Cell Signaling Technology). For immunofluorescent staining, sections were then incubated with Alexa 594-conjugated goat anti-rabbit secondary antibody (Invitrogen) and mounted in Fluorescent Mounting Medium (DAKO) containing 4′,6-diamidino-2-phenylindole (Molecular Probes) as a nuclear counterstain. Fluorescent staining was visualized using a Zeiss Axiolmager and digitally captured using a Zeiss high-resolution camera coupled to AxioVision image analysis software. Two to three nonoverlapping representative fields were captured at ×200 or ×400 magnification depending on histologic readout and quantified using the integrated morphometric analysis functions in Metamorph software (Universal Imaging Corp.). Apoptotic cells were detected using terminal deoxynucleotidyl transferase-mediated dUTP nick end labeling in situ cell death detection kit according to the manufacturer's instructions (Roche Diagnostics GmbH).
Results are presented as mean±SD or SE as indicated for each graph or table. For IC50 comparison in the A431 cell viability experiment, two sample Student's t tests were applied to determine P values for each IC50 pair assuming that the random fluctuations of replicates around the dose-response curve are distributed [log]normally with the individual replicates used as the ‘sample size’ for the t test (nine point dose response done in triplicate).

[15] = target: T11, p-Y-VEGFR2/KDR (Mus musculus, UniProt P35918); experiment: In vivo receptor phosphorylation, murine lung; settings: read-out: Estimated IC50 (plasma concentration)
T11 construct: from tissue; host or cells: murine lung
T11 sequence (P35918 20-1345): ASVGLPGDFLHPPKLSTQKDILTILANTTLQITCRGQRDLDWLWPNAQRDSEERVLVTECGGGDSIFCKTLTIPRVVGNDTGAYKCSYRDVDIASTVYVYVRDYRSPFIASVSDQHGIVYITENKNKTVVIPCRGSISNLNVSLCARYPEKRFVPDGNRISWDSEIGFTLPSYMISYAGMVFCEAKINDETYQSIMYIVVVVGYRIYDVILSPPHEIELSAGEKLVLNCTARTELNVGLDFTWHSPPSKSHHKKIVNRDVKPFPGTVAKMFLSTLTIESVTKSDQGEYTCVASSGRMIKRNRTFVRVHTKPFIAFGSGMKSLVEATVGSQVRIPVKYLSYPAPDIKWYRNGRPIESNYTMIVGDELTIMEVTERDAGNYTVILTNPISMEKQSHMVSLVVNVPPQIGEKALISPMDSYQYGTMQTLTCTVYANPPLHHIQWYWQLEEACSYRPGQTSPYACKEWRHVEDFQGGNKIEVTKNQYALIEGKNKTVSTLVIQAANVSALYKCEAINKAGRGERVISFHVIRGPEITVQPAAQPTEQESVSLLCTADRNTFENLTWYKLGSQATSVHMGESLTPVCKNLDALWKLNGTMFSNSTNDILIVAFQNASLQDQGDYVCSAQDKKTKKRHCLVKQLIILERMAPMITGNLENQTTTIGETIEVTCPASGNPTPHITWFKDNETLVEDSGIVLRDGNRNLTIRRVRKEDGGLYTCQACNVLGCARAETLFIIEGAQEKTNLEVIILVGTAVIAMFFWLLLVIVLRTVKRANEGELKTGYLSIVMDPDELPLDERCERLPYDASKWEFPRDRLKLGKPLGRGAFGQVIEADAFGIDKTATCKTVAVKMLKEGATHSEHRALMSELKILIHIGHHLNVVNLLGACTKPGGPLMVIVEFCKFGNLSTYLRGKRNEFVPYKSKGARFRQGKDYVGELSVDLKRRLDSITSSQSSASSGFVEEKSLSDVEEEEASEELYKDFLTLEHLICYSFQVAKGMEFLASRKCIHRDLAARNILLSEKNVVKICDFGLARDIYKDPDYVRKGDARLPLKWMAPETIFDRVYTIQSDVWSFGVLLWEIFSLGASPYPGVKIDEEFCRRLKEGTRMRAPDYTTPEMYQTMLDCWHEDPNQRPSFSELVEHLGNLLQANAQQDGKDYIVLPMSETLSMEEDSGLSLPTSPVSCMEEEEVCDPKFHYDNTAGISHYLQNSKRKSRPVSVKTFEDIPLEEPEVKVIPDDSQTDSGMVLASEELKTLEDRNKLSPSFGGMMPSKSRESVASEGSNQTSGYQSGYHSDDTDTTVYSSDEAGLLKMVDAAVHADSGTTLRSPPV

[16] = target: CYP2D6 (Homo sapiens, UniProt P10635)
Chain of CYP2D6 (P10635 whole entry): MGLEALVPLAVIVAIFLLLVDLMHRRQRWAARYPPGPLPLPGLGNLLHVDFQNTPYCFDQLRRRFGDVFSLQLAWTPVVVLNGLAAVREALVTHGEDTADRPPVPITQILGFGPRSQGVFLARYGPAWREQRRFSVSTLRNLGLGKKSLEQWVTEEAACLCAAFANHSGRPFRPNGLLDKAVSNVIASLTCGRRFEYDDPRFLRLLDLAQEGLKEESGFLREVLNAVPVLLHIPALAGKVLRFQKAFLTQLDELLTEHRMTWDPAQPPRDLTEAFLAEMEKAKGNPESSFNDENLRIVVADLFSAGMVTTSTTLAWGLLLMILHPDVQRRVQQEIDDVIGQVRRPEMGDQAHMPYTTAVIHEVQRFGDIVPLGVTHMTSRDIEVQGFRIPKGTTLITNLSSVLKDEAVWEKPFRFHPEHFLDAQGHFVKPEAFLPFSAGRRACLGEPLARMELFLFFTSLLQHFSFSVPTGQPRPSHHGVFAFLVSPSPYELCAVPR

[17] = target: c-Kit (Homo sapiens, UniProt P10721); experiment: AlphaScreen kinase assay; type: biochemical; design: Human, T544-; MgCl2, 3 mM MnCl2, 1 mM; V976, N-GST,; GST (N); purchased ProQinase
Experimental: An AlphaScreen tyrosine kinase assay was used to measure ErbB2 and Flt-4 activity. Donor beads coated with streptavidin and acceptor beads coated with PY100 anti-phosphotyrosine antibody (Perkin-Elmer) were used. Biotinylated poly(Glu,Tyr) 4:1 was used as the substrate. Substrate phosphorylation was measured by luminescence following donor-acceptor bead addition followed by complex formation. Test compound, 3 μmol/L ATP, 3 nmol/L biotinylated poly(Glu,Tyr) 4:1, and 1 nmol/L ErbB2 (residues Q679-V1255 of human ErbB2, Proqinase) or Flt-4 (residues D725-R1298 of human Flt-4, Proqinase) were combined in a volume of 20 μL Assay Buffer (20 mM TrisHCl, pH 7.5, 10 mM MgCl2, 3 mM MnCl2, 1 mM DTT, 0.01% Triton) in a 384-well white, medium-binding microtiter plate (Greiner). Reaction mixtures were incubated for 1 h at room temperature. Reactions were quenched by addition of 10 μL of 15 to 30 μg/mL AlphaScreen bead suspension containing 75 mmol/L HEPES (pH 7.4), 300 mmol/L NaCl, 120 mmol/L EDTA, 0.3% bovine serum albumin, and 0.03% Tween 20. After 2 to 16 h of incubation at room temperature, plates were read using an AlphaQuest reader (Perkin-Elmer).
Further screening was performed using the biochemical assay methods of Example 2. Additional description of the components and concentrations are summarized in Table 8, Table 9, and Table 10, below.

`COc1cc2c(Nc3ccc(Cl)c(Cl)c3F)ncnc2cc1OC[C@@H]1C[C@@H]2CN(C)C[C@@H]2C1` [XL-647, N-(3,4-dichloro-2-fluorophenyl)-7-({[(3aR,5r,6aS)-2-methyloctahydrocyclopenta[c]pyrrol-5-yl]methyl}oxy)-6-(methyloxy)quinazolin-4-amine] was tested, and the IC50 [1] was 0.3 ± 0.1 nM, the IC50 [2] was 10.3 ± 2 nM and the ATP-Competitive [3] was “Yes”. For the same molecule, the Ki [3] was 0.05 nM, the Reversible [3] was “Yes” and the “Inhibition, 10 μM XL-647” value [4] was 34.88%. It also gave an IC50 [5] of 2330 nM, an inhibition at 10 µM ([5]; read-out: Inhibition, 10 μM XL-647) of 98.1% and an inhibition at 10 µM [6] of 18.1%. It also gave an inhibition at 10 µM [7] of 32.2%, an inhibition at 10 µM [8] of -11.9% and an inhibition at 10 µM [9] of 11.7%. The inhibition at 10 µM [10] was 20.4%, the IC50 [11] was 6.8 ± 0.8 nM and the IC50 [12] was 552 nM. For the same molecule, the IC50 [13] was over 1200 nM, the “Phospho-EGFR Tyr1068 % Cells” value ([14]; 10 mg/kg) was 14 ± 1.9% and the “Phospho-EGFR Tyr1068 % Reduction” value ([14]; 10 mg/kg) was 49.0^a %. The “Phospho-EGFR Tyr1068 % Cells” value ([14]; 30 mg/kg) was 12 ± 1.3%, the “Phospho-EGFR Tyr1068 % Reduction” value ([14]; 30 mg/kg) was 56.1^a % and the “Phospho-EGFR Tyr1068 % Cells” value ([14]; 100 mg/kg) was 10 ± 1.8%. For the same molecule, the “Phospho-EGFR Tyr1068 % Reduction” value ([14]; 100 mg/kg) was 63.7^a %, the IC50 [15] was 1200 nM and the “CYP2D6 inhibition, in words” value [16] was “inhibitor”. It also gave an IC50 [17] of 132 ± 8.2 nM.
